Data from US6861230B1, “Antibiotic sensitivity testing” (priority 1998, dated 2005).

Columns and labels:
[1] = tested on: E. coli 10243 (sensitive, untransformed); assay: Adenylate kinase release (cell lysis) assay with antibiotic and phage 10359, sensitive strain; type: cell-based, Escherichia coli
Experimental: For example, in one embodiment, a sample of bacterial cells is divided into first and second samples. The first sample of bacterial cells is mixed with a solution containing ADP and a detergent in the presence of magnesium ions. This extracts the adenylate kinase from all the cells present in the sample, thus allowing the ATP generating reaction to occur. The reaction is allowed to proceed for the required time e.g. 5 minutes, after which bioluminescence reagent is added and the resulting light measured in a luminometer. An assay performed in this way determines the total amount of adenylate kinase in a sample, be it extracellular or intracellular.
The second sample is subjected to a similar assay but in the absence of detergent so that only extracellular adenylate kinase is measured. […]

[2] = tested on: E. coli 10243 carrying plasmid encoding ampicillin resistance (pUC18); assay: Adenylate kinase release (cell lysis) assay with antibiotic and phage 10359, ampicillin-resistant strain; type: cell-based, Escherichia coli; conditions: log phase, 10^5 phage 10359 at T0, 50 μg/ml ampicillin at T5
Experimental: A plasmid encoding ampicillin resistance (pUC18) was introduced into a pure culture of E. coli 10243 in order to induce resistance without altering phage host specificity.
Log phase cultures of both resistant and sensitive strains of E. coli 10243 were infected with 10^5 phage 10359 at T0 and 50 μg/ml ampicillin at T5.

Q: `CC1(C)S[C@@H]2[C@H](NC(=O)[C@H](N)c3ccccc3)C(=O)N2[C@H]1C(=O)O` [ampicillin] was tested. Which “Cell lysis due to ampicillin (adenylate kinase release)” value ([1]; sensitive strain, log phase, 10^5 phage 10359 at T0, 50 μg/ml ampicillin at T5, time in min) did it give?
A: Its value is “evident at T10 and significant at T20”.

Q: And the “Effect of the antibiotic on the resistant strain (adenylate kinase release)” value [2]?
A: The value was “unaffected by the antibiotic”.

Q: Which results are given for `O=C(N[C@H](CO)[C@H](O)c1ccc([N+](=O)[O-])cc1)C(Cl)Cl` [chloramphenicol]?
A: Degree of phage mediated lysis in cultures containing the antibiotic ([1]; phage 10359 plus chloramphenicol 34 μg/ml versus phage only, 80 min): considerably less; Cell lysis with both bacteriophage and chloramphenicol compared with chloramphenicol alone ([1]; phage 10359 plus chloramphenicol 34 μg/ml, 80 min): Greater cell lysis
